What was measured:
Assay type in all cases: in vivo
[1] = tested on: Italian ryegrass (Lolium multiflorum); test: Test C plant response; conditions: Postemergence, scale 0 to 100
In short: (§1)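 Visual response scores run from 0 (no effect) to 100 (complete control), assigned 14 days after treatment by comparison with untreated plants. Compounds were applied in a surfactant-containing non-phytotoxic solvent mixture.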

[2] = tested on: Russian thistle (Salsola iberica); test: Test C plant response; conditions: Postemergence, scale 0 to 100
In short: as §1

[3] = tested on: blackgrass (Alopecurus myosuroides); test: Test C plant response; conditions: Postemergence, scale 0 to 100
In short: as §1

[4] = tested on: bromegrass (downy bromegrass, Bromus tectorum); test: Test C plant response; conditions: Postemergence, scale 0 to 100
In short: as §1

[5] = tested on: canarygrass (Phalaris minor); test: Test C plant response; conditions: Postemergence, scale 0 to 100
In short: as §1

[6] = tested on: chickweed (common chickweed, Stellaria media); test: Test C plant response; conditions: Postemergence, scale 0 to 100
In short: as §1

[7] = tested on: deadnettle (henbit deadnettle, Lamium amplexicaule); test: Test C plant response; conditions: Postemergence, scale 0 to 100
In short: as §1

[8] = tested on: field poppy (Papaver rhoeas); test: Test C plant response; conditions: Postemergence, scale 0 to 100
In short: as §1

[9] = tested on: galium (catchweed bedstraw, Galium aparine); test: Test C plant response; conditions: Postemergence, scale 0 to 100
In short: as §1

[10] = tested on: kochia (Kochia scoparia); test: Test C plant response; conditions: Postemergence, scale 0 to 100
In short: as §1

[11] = tested on: lambsquarters (Chenopodium album); test: Test C plant response; conditions: Postemergence, scale 0 to 100
In short: as §1

[12] = tested on: spring wheat (Triticum aestivum); test: Test C plant response; conditions: Postemergence, scale 0 to 100
In short: as §1

[13] = tested on: wild mustard (Sinapis arvensis); test: Test C plant response; conditions: Postemergence, scale 0 to 100
In short: as §1

[14] = tested on: wild radish (Raphanus raphanistrum); test: Test C plant response; conditions: Postemergence, scale 0 to 100
In short: as §1

[15] = tested on: windgrass (Apera spica-venti); test: Test C plant response; conditions: Postemergence, scale 0 to 100
In short: as §1

[16] = tested on: winter barley (Hordeum vulgare); test: Test C plant response; conditions: Postemergence, scale 0 to 100
In short: as §1

[17] = tested on: ducksalad (Heteranthera limosa); test: Test E flooded paddy rice and weeds; conditions: applied to paddy water, 21 days, scale 0 to 100
Source text: (§2) Three plastic pots (ca. 16-cm diameter) for each application were partially filled with sterilized Tama silt loam soil comprising a 35:50:15 ratio of sand, silt and clay and 2.6% organic matter. Separate plantings for each of the three pots were as follows. Seeds from the U.S. of ducksalad (Heteranthera limosa), sedge (smallflower umbrella sedge, Cyperus difformis), ricefield bulrush (Scirpus mucronatus) and redstem (purple redstem, Ammannia coccinea), were planted into one 16-cm pot for each rate. Seeds from the U.S. of flatsedge (rice flatsedge, Cyperus iria), sprangletop (bearded (i.e. Brdd.) sprangletop, Leptochloa fascicularis), one stand of 9 or 10 water seeded rice seedlings (Oryza sativa cv. ‘Japonica—M202’), and two stands of 3 or 4 transplanted rice seedlings (Oryza sativa cv. ‘Japonica—M202’) were planted into one 16-cm pot for each rate. Seeds from the U.S. of barnyardgrass (Echinochloa crus-galli), late watergrass (Echinochloa oryzicola), early watergrass (Echinochloa oryzoides) and junglerice (Echinochloa colona) were planted into one 16-cm pot for each rate. Plantings were sequential so that crop and weed species were at the 2.0 to 2.5-leaf stage at time of treatment.
(§3) Potted plants were grown in a greenhouse with day/night temperature settings of 30/27° C., and supplemental balanced lighting was provided to maintain a 16-hour photoperiod. Test pots were maintained in the greenhouse until test completion.
(§4) At time of treatment, test pots were flooded to 3 cm above the soil surface, treated by application of test compounds directly to the paddy water, and then maintained at that water depth for the duration of the test. Effects of treatments on rice and weeds were visually evaluated by comparison to untreated controls after 21 days. Plant response ratings, summarized in Table E, are based on a scale of 0 to 100 where 0 is no effect and 100 is complete control. A dash (-) response means no test result.

[18] = tested on: junglerice (Echinochloa colona); test: Test E flooded paddy rice and weeds; conditions: applied to paddy water, 21 days, scale 0 to 100
Source text: as §2, §3, §4

Structure (SMILES): COc1ccc(-n2c(-c3ccccc3)ncc(C(=O)C3=C(O)CCCC3=O)c2=O)cc1 [Compound 4, 5-[(2-hydroxy-6-oxo-cyclohexen-1-yl)carbonyl]-3-(4-methoxyphenyl)-2-phenyl-4(3H)-pyrimidinone]
- Plant response rating: Ryegrass, Italian ([1]; 31 g ai/ha): 10
- Plant response rating: Ryegrass, Italian ([1]; 125 g ai/ha): 15
- Plant response rating: Russian Thistle ([2]; 31 g ai/ha): 70
- Plant response rating: Russian Thistle ([2]; 125 g ai/ha): 95
- Plant response rating: Blackgrass ([3]; 31 g ai/ha): 20
- Plant response rating: Blackgrass ([3]; 125 g ai/ha): 40
- Plant response rating: Bromegrass, Downy ([4]; 31 g ai/ha): 35
- Plant response rating: Bromegrass, Downy ([4]; 125 g ai/ha): 40
- Plant response rating: Canarygrass ([5]; 31 g ai/ha): 0
- Plant response rating: Canarygrass ([5]; 125 g ai/ha): 90
- Plant response rating: Chickweed ([6]; 31 g ai/ha): 98
- Plant response rating: Chickweed ([6]; 125 g ai/ha): 100
- Plant response rating: Deadnettle ([7]; 31 g ai/ha): 98
- Plant response rating: Deadnettle ([7]; 125 g ai/ha): 100
- Plant response rating: Field Poppy ([8]; 31 g ai/ha): 30
- Plant response rating: Field Poppy ([8]; 125 g ai/ha): 50
- Plant response rating: Galium ([9]; 31 g ai/ha): 65
- Plant response rating: Galium ([9]; 125 g ai/ha): 90
- Plant response rating: Kochia ([10]; 31 g ai/ha): 90
- Plant response rating: Kochia ([10]; 125 g ai/ha): 95
- Plant response rating: Lambsquarters ([11]; 31 g ai/ha): 100
- Plant response rating: Lambsquarters ([11]; 125 g ai/ha): 100
- Plant response rating: Wheat, Spring ([12]; 31 g ai/ha): 15
- Plant response rating: Wheat, Spring ([12]; 125 g ai/ha): 20
- Plant response rating: Mustard, Wild ([13]; 31 g ai/ha): 98
- Plant response rating: Mustard, Wild ([13]; 125 g ai/ha): 100
- Plant response rating: Radish, Wild ([14]; 31 g ai/ha): 80
- Plant response rating: Radish, Wild ([14]; 125 g ai/ha): 95
- Plant response rating: Windgrass ([15]; 31 g ai/ha): 35
- Plant response rating: Windgrass ([15]; 125 g ai/ha): 95
- Plant response rating: Barley, Winter ([16]; 31 g ai/ha): 5
- Plant response rating: Barley, Winter ([16]; 125 g ai/ha): 35
- Plant response rating, Ducksalad, Flood ([17]; 125 g ai/ha): 90
- Plant response rating, Ducksalad, Flood ([17]; 250 g ai/ha): 100
- Plant response rating, Ducksalad, Flood ([17]; 500 g ai/ha): 100
- Plant response rating, Junglerice, Flood ([18]; 125 g ai/ha): 0
- Plant response rating, Junglerice, Flood ([18]; 250 g ai/ha): 25
- Plant response rating, Junglerice, Flood ([18]; 500 g ai/ha): 50

Structure (SMILES): Cc1ccc(-n2c(-c3ccccc3)ncc(C(=O)C3=C(O)CCCC3=O)c2=O)c(C)c1 [Compound 28]
- Plant response rating, Ducksalad, Flood ([17]; 32 g ai/ha): 0
- Plant response rating, Ducksalad, Flood ([17]; 64 g ai/ha): 0
- Plant response rating, Ducksalad, Flood ([17]; 125 g ai/ha): 80
- Plant response rating, Ducksalad, Flood ([17]; 250 g ai/ha): 100
- Plant response rating, Junglerice, Flood ([18]; 32 g ai/ha): 0
- Plant response rating, Junglerice, Flood ([18]; 64 g ai/ha): 0
- Plant response rating, Junglerice, Flood ([18]; 125 g ai/ha): 0
- Plant response rating, Junglerice, Flood ([18]; 250 g ai/ha): 0

Structure (SMILES): Cc1cc(C)cc(-n2c(-c3ccccc3)ncc(C(=O)C3=C(O)CCCC3=O)c2=O)c1 [Compound 33]
- Plant response rating: Ryegrass, Italian ([1]; 31 g ai/ha): 0
- Plant response rating: Ryegrass, Italian ([1]; 16 g ai/ha): 0
- Plant response rating: Ryegrass, Italian ([1]; 62 g ai/ha): 10
- Plant response rating: Ryegrass, Italian ([1]; 125 g ai/ha): 10
- Plant response rating: Russian Thistle ([2]; 31 g ai/ha): 80
- Plant response rating: Russian Thistle ([2]; 16 g ai/ha): 80
- Plant response rating: Russian Thistle ([2]; 62 g ai/ha): 90
- Plant response rating: Russian Thistle ([2]; 125 g ai/ha): 90
- Plant response rating: Blackgrass ([3]; 31 g ai/ha): 5
- Plant response rating: Blackgrass ([3]; 16 g ai/ha): 0
- Plant response rating: Blackgrass ([3]; 62 g ai/ha): 35
- Plant response rating: Blackgrass ([3]; 125 g ai/ha): 35
- Plant response rating: Bromegrass, Downy ([4]; 31 g ai/ha): 10
- Plant response rating: Bromegrass, Downy ([4]; 16 g ai/ha): 0
- Plant response rating: Bromegrass, Downy ([4]; 62 g ai/ha): 15
- Plant response rating: Bromegrass, Downy ([4]; 125 g ai/ha): 20
- Plant response rating: Canarygrass ([5]; 31 g ai/ha): 0
- Plant response rating: Canarygrass ([5]; 16 g ai/ha): 0
- Plant response rating: Canarygrass ([5]; 62 g ai/ha): 5
- Plant response rating: Canarygrass ([5]; 125 g ai/ha): 5
- Plant response rating: Chickweed ([6]; 31 g ai/ha): 90
- Plant response rating: Chickweed ([6]; 16 g ai/ha): 90
- Plant response rating: Chickweed ([6]; 62 g ai/ha): 98
- Plant response rating: Chickweed ([6]; 125 g ai/ha): 100
- Plant response rating: Deadnettle ([7]; 31 g ai/ha): 98
- Plant response rating: Deadnettle ([7]; 16 g ai/ha): 95
- Plant response rating: Deadnettle ([7]; 62 g ai/ha): 98
- Plant response rating: Deadnettle ([7]; 125 g ai/ha): 100
- Plant response rating: Field Poppy ([8]; 31 g ai/ha): 80
- Plant response rating: Field Poppy ([8]; 16 g ai/ha): 80
- Plant response rating: Field Poppy ([8]; 62 g ai/ha): 90
- Plant response rating: Field Poppy ([8]; 125 g ai/ha): 98
- Plant response rating: Galium ([9]; 31 g ai/ha): 40
- Plant response rating: Galium ([9]; 16 g ai/ha): 35
- Plant response rating: Galium ([9]; 62 g ai/ha): 50
- Plant response rating: Galium ([9]; 125 g ai/ha): 60
- Plant response rating: Kochia ([10]; 31 g ai/ha): 50
- Plant response rating: Kochia ([10]; 16 g ai/ha): 35
- Plant response rating: Kochia ([10]; 62 g ai/ha): 60
- Plant response rating: Kochia ([10]; 125 g ai/ha): 70
- Plant response rating: Lambsquarters ([11]; 31 g ai/ha): 98
- Plant response rating: Lambsquarters ([11]; 16 g ai/ha): 98
- Plant response rating: Lambsquarters ([11]; 62 g ai/ha): 100
- Plant response rating: Lambsquarters ([11]; 125 g ai/ha): 100
- Plant response rating: Wheat, Spring ([12]; 31 g ai/ha): 10
- Plant response rating: Wheat, Spring ([12]; 16 g ai/ha): 10
- Plant response rating: Wheat, Spring ([12]; 62 g ai/ha): 10
- Plant response rating: Wheat, Spring ([12]; 125 g ai/ha): 10
- Plant response rating: Mustard, Wild ([13]; 31 g ai/ha): 98
- Plant response rating: Mustard, Wild ([13]; 16 g ai/ha): 98
- Plant response rating: Mustard, Wild ([13]; 62 g ai/ha): 98
- Plant response rating: Mustard, Wild ([13]; 125 g ai/ha): 100
- Plant response rating: Radish, Wild ([14]; 31 g ai/ha): 95
- Plant response rating: Radish, Wild ([14]; 16 g ai/ha): 90
- Plant response rating: Radish, Wild ([14]; 62 g ai/ha): 95
- Plant response rating: Radish, Wild ([14]; 125 g ai/ha): 98
- Plant response rating: Windgrass ([15]; 31 g ai/ha): 20
- Plant response rating: Windgrass ([15]; 16 g ai/ha): 0
- Plant response rating: Windgrass ([15]; 62 g ai/ha): 25
- Plant response rating: Windgrass ([15]; 125 g ai/ha): 40
- Plant response rating: Barley, Winter ([16]; 31 g ai/ha): 0
- Plant response rating: Barley, Winter ([16]; 16 g ai/ha): 0
- Plant response rating: Barley, Winter ([16]; 62 g ai/ha): 0
- Plant response rating: Barley, Winter ([16]; 125 g ai/ha): 5

Structure (SMILES): COc1ccc(-n2c(-c3ccccc3)ncc(C(=O)C3=C(O)CCCC3=O)c2=O)cc1OC [Compound 218]
- Plant response rating, Ducksalad, Flood ([17]; 32 g ai/ha): 80
- Plant response rating, Ducksalad, Flood ([17]; 64 g ai/ha): 85
- Plant response rating, Ducksalad, Flood ([17]; 125 g ai/ha): 95
- Plant response rating, Ducksalad, Flood ([17]; 250 g ai/ha): 100
- Plant response rating, Junglerice, Flood ([18]; 32 g ai/ha): 0
- Plant response rating, Junglerice, Flood ([18]; 64 g ai/ha): 0
- Plant response rating, Junglerice, Flood ([18]; 125 g ai/ha): 65
- Plant response rating, Junglerice, Flood ([18]; 250 g ai/ha): 100

Reference: patent US8952024B2, “Herbicidal pyrimidone derivatives” (E I du Pont de Nemours and Company, priority 2009, dated 2015)
